Reference: patent US20220170945A1, “METHOD FOR ASSISTING EVALUATION OF RENAL PATHOLOGICAL CONDITIONS, SYSTEM FOR EVALUATING RENAL PATHOLOGICAL CONDITIONS AND PROGRAM FOR EVALUATING RENAL PATHOLOGICAL CONDITIONS” (Kagami Inc., priority 2019, published 2022)

Details: human, in vivo
Text: According to the invention, the excretion rate (excretion) is a marker representing the degree of discharge into urine of the amount of target components that have been filtered through the glomeruli by way of the regulating function of the renal tubules (reabsorption and secretion), and it is expressed as a proportion or percentage, or in arbitrary units. The value can be calculated after excluding the effect of reabsorption or concentration of water by correction using a correction factor, and expressed as fractional excretion (FE). Since urine often has a variable concentration rate, the percentages of reabsorption and excretion of D-serine and/or D-asparagine in the kidneys of a subject may be corrected using a “correction factor” that corrects for the urine concentration rate. According to one embodiment of the invention, for example, the subject D-serine excretion rate and/or the subject D-asparagine excretion rate may be corrected by a correction factor derived from the blood and/or urine. In its most simple form, the excretion rate is expressed as a percentage of the amount of target components in urine divided by the glomerular filtration rate for the target components, and the glomerular filtration rate obtained by inulin clearance or the actually measured urinary volume, as well as the amounts of target components in blood and/or in urine, may also be used for the calculation. L-amino acid levels (preferably the levels of L-serine and/or L-asparagine) in urine may also be used as urinary volume correction factors for calculation of the D-amino acid excretion rate. Creatinine clearance, calculated by urine creatinine level or the blood creatinine level, may also be used as a correction factor, expressing the D-serine excretion rate by the following formula, for example. This may then be multiplied by 100 to obtain a percent (%).
The test protocol was approved by the ethics committee of the national research and development agency: National Institutes of Biomedical Innovation, Health and Nutrition, and written informed consent was obtained from all of the test subjects.
Sample preparation from human blood plasma and urine was carried out as follows: First a 20-fold volume of methanol was added to and completely mixed with the blood plasma. […]
The amino acid optical isomers were quantified using the following two-dimensional HPLC system. […] NBD-amino acids were detected by fluorescence detection at 530 nm using excitation light of 470 nm. The NBD-amino acid retention time was identified from standard amino acid optical isomers and quantified by a calibration curve.
The blood urine D-serine level and blood urine D-asparagine level and creatinine level were calculated by substitution into the following formulas.

excretion rate after administration of ARB	excretion rate before administration of ARB	Compound
35.39%	45.71%	NC(=O)C[C@@H](N)C(=O)O [D-asparagine]
25.73%	64.56%	N[C@H](CO)C(=O)O [D-serine]
